Test results: PMC11379888 (Nature Communications, 2024)
Values after ≈ are worked out from the molar mass of the structure shown. Read-outs that look alike come from different tables or passages of the source.

What was measured:
[1] = system: C. albicans Cdr2; conditions: cited from earlier work
[2] = system: C. albicans Cdr1; conditions: cited from earlier work
[3] = system: Pdr5-deficient S. cerevisiae (empty vector); test: microbe, parasite or virus in culture; assay type: cell-based; conditions: Saccharomyces cerevisiae, 48 h, read-out: IC50 (fluconazole-sensitivity, OD600nm)
[4] = target: purified Cdr1 (Candida albicans, UniProt Q5ANA3); test: ATPase activity assay; assay type: biochemical, C. albicans; conditions: drug ten times Cdr1 concentration (4 μM vs 0.4 μM), GDN, relative to DMSO
[5] = target: Cdr1 fused with EGFP (Candida albicans, UniProt Q5ANA3); test: Microscale thermophoresis; assay type: binding, C. albicans
[6] = system: C. albicans Cdr1 overexpressed in Pdr5-deficient S. cerevisiae; test: organism not typed; assay type: cell-based; conditions: 48 h, read-out: IC50 (fluconazole-sensitivity, OD600nm)
[7] = system: Cdr1 overexpressed in Pdr5-knocked-out S. cerevisiae; assay type: cell-based
[8] = system: azole-resistant clinical C. albicans isolates; conditions: cited from earlier work

purified Cdr1, sequence (Q5ANA3 whole entry, the tested form may be a part): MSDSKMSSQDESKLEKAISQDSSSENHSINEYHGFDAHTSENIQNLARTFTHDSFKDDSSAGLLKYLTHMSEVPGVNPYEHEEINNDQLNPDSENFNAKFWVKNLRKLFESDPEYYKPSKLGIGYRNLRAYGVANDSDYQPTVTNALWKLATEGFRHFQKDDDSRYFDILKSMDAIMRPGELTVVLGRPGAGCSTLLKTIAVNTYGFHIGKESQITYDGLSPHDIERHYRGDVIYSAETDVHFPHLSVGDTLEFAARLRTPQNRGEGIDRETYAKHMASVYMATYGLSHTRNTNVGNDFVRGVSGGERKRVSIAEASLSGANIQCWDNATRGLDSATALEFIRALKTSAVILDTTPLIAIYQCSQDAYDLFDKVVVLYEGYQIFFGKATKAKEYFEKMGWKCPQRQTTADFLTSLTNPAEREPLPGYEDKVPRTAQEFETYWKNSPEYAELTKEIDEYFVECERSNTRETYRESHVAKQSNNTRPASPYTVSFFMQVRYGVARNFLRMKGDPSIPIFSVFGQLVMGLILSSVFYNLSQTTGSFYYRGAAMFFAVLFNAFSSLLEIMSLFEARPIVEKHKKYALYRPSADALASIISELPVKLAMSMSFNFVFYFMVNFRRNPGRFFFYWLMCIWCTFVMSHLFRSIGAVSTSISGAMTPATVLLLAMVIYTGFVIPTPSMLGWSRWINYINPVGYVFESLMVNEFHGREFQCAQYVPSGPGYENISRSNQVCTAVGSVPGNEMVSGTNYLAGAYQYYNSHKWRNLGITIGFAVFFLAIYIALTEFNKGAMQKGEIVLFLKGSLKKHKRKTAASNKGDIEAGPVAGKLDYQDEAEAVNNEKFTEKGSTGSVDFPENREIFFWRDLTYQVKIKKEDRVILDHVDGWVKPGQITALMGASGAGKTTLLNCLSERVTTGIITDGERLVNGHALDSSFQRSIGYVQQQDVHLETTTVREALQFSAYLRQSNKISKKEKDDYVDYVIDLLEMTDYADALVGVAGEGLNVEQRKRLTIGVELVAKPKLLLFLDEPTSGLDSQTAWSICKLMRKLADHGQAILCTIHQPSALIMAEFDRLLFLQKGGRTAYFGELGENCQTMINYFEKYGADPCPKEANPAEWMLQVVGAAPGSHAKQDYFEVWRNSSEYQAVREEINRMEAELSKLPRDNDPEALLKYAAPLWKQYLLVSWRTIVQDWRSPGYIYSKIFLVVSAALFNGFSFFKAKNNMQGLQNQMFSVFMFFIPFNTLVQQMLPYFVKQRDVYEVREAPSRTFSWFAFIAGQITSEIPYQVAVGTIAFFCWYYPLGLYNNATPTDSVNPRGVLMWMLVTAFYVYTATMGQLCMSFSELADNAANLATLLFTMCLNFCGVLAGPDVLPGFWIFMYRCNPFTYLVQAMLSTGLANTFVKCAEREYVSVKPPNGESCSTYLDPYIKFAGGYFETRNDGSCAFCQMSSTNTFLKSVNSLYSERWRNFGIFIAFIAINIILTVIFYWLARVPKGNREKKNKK
Cdr1 fused with EGFP, sequence (Q5ANA3 whole entry, the tested form may be a part): as above

Molecule: milbemycin α25
- inhibition of Cdr2 [1]: potent inhibition
- inhibition of Cdr1 [2]: potent inhibition

Molecule: OC(Cn1cncn1)(Cn1cncn1)c1ccc(F)cc1F [fluconazole]
- IC50 [3]: 0.31 µg/mL (≈ 1.01 µM)
- ATP hydrolysis (relative ATPase activity, mean) [4]: decreases slightly
- Kd [5]: 61.4 µM
- IC50 [6]: 56.6 µg/mL (≈ 185 µM)

Molecule: milbemycin oxime
- selectivity of inhibition Cdr1 vs Pdr5 ([7]; […], 1 μg/mL fluconazole, 0.1 μg/mL milbemycin oxime): selectively inhibits Cdr1 rather than Pdr5
- IC50 (milbemycin oxime-sensitivity, OD600nM) ([7]; with 1 µg/mL fluconazole): 0.034 µg/mL
- IC50 (milbemycin oxime-sensitivity, OD600nM) ([7]; with 10 µg/mL fluconazole): 0.009 µg/mL
- ATP hydrolysis (relative ATPase activity, mean) [4]: 25.7%
- synergy with fluconazole [8]: strong synergistic effects with fluconazole
- Kd ([5]; read-out: dissociation constant (Kd), 100 nM Cdr1, PBS 0.02% DDM, 25 °C): 0.147 µM
